Test results taken from patent US20160340286A1, “CLOSTRUBINS” (LEIBNIZ-INSTITUT FÜR NATURSTOFF-FORSCHUNG UND …, priority 2014, published 2016).
Converted amounts (≈) assume the structure as drawn. Where two headings read alike, the source gives them in different places.

Key:
Format in all cases: cell-based
Bacillus pumilus = test: microbe, parasite or virus in culture; settings: potato soft rot pathogen
Protocol: (§1) The antimicrobial activity of clostrubin A (1) and clostrubin B (2) against the serious potato pathogens Bacillus pumilus (causing potato soft rot), Clavibacter michiganensis ssp. sepedonicus (causing potato ring rot), and Streptomyces scabies (causing potato scab) was tested.

Streptomyces scabies = test: microbe, parasite or virus in culture; settings: Streptomyces scabiei; potato scab pathogen
Protocol: as §1

[1] = tested on: vancomycin-resistant enterococci (VRE); test: standardized antibiotic assay, MIC, VRE; settings: Enterococcus
Protocol: (§2) The activity and more specifically the bioactivity of the compounds according to the present invention can be assessed using appropriate assays known to those skilled in the art, e.g. in vitro or in vivo assays. For instance, the antimicrobial activity may be determined using a standardized antibiotic assay^[1], and the antiproliferative and/or cytotoxic activity may be determined via a standardized assay as described in reference.
(§3) The antibiotic activity of clostrubin A was tested using a standardized antibiotic assay^[1]. […]. A similar antimicrobial activity as against MRSA was observed against Mycobacterium smegmatis (M smegmatis), Mycobacterium aurum (M aurum), Mycobacterium vaccae (M vaccae) and Mycobacterium fortuitum (M fortuitum)—see, Table 3.

Escherichia coli = test: standardized antibiotic assay, MIC, Ec; settings: for MIC: Escherichia coli (Gram-negative)
Protocol: as §2, §3

[2] = tested on: methicillin-resistant Staphylococcus aureus (MRSA); test: standardized antibiotic assay, MIC, MRSA
Protocol: as §2, §3

HUVEC = test: antiproliferative effect, standardized assay
Source text: as §2
(§4) Antiproliferative and cytotoxic activity of clostrubin A was tested in a standardized assay^[2].

K-562 = test: antiproliferative effect, standardized assay; settings: Homo sapiens, K562
Source text: as §2, §4

Mycobacterium aurum = test: anti-mycobacterial activity, MIC; settings: Mycolicibacterium aurum
Protocol: as §2, §3

Mycobacterium vaccae = test: anti-mycobacterial activity, MIC; settings: Mycolicibacterium vaccae
Protocol: as §2, §3

Mycobacterium fortuitum = test: anti-mycobacterial activity, MIC; settings: Mycolicibacterium fortuitum
Protocol: as §2, §3

Mycobacterium smegmatis = test: anti-mycobacterial activity, MIC; settings: Mycolicibacterium smegmatis
Protocol: as §2, §3

HeLa = test: cytotoxicity, standardized assay; settings: summary of Table 4 (HeLa)
Source text: as §2, §4

[3] = cytotoxicity, standardized assay; settings: human, HeLa cells
Source text: as §2, §4

Bs = test: standardized antibiotic assay, MIC, Bs
Protocol: as §2, §3

[4] = tested on: Clavibacter michiganensis ssp. sepedonicus; test: activity against potato pathogens, MIC; settings: read-out: MIC Clavibacter michiganensis ssp. sepedonicus

For `CC(=O)c1ccc2c(c1O)c(O)c1c3c(c(O)cc(C)c32)C(=O)c2c(O)cc(C)cc2-1` [Compound 1, clostrubin A], which MIC (Bacillus pumilus) is on record?
Its MIC is 0.047 µM (≈ 0.0195 µg/mL).

And the MIC (Streptomyces scabies)?
Its MIC is 0.0947 µM (≈ 0.0392 µg/mL).

What about the MIC ([1]; read-out: MIC VRE) of the same compound?
Its MIC is 0.97 µM.

And the MIC ([1]; read-out: minimum inhibitory concentration (MIC) VRE)?
The MIC was 0.4 µg/mL.

What about the MIC (Escherichia coli) of the same compound?
Its MIC is over 60 µM.

And the “antibiotic activity against Escherichia coli (in words)” value (Escherichia coli; Gram-negative organism)?
The value was “ineffective”.

And the MIC ([2]; read-out: MIC MRSA)?
The MIC was 0.12 µM.

And the MIC ([2]; read-out: minimum inhibitory concentration (MIC) MRSA)?
The MIC was 0.05 µg/mL.

What about the GI50 (HUVEC; Homo sapiens, HUVEC) of the same compound?
Its GI50 is 1200 nM.

What about the “antiproliferative activity (in words)” value (HUVEC; summary of Table 4 (HUVEC, K-562)) of the same compound?
The value was “moderate”.

What about the GI50 (K-562) of the same compound?
The GI50 was 2660 nM.

What about the MIC (Mycobacterium aurum) of the same compound?
Its MIC is 0.12 µM (≈ 0.0497 µg/mL).

What about the MIC (Mycobacterium vaccae) of the same compound?
Its MIC is 0.12 µM (≈ 0.0497 µg/mL).

And the MIC (Mycobacterium fortuitum)?
The MIC was 0.12 µM (≈ 0.0497 µg/mL).

What about the MIC (Mycobacterium smegmatis) of the same compound?
The MIC was 0.48 µM (≈ 0.199 µg/mL).

And the “cytotoxic activity (in words)” value (HeLa)?
The value was “moderate”.

And the CC50 [3]?
The CC50 was 1690 nM.

And the MIC (Bs)?
The MIC was 0.075 µM (≈ 0.0311 µg/mL).

And the MIC [4]?
The MIC was 0.0947 µM (≈ 0.0392 µg/mL).

For `COCC(O)C(O)C(O)C(=O)c1c(C)cc2c(c1O)C(=O)c1c(O)cc(C)c3c1c-2c(O)c1c(O)c(C(C)=O)ccc13` (stereo not drawn) [Compound 2, clostrubin B], which MIC (Bacillus pumilus) is on record?
Its MIC is 0.542 µM (≈ 0.312 µg/mL).

And the MIC (Streptomyces scabies)?
Its MIC is 0.271 µM (≈ 0.156 µg/mL).

And the MIC [4]?
Its MIC is 0.542 µM (≈ 0.312 µg/mL).

Which MIC ([1]; read-out: MIC VRE) does the source give for `O=C(O)c1cn(C2CC2)c2cc(N3CCNCC3)c(F)cc2c1=O` [Cip, ciprofloxacin, reference compound] here?
The MIC was 2.3 µM.

And the MIC (Escherichia coli)?
The MIC was 0.01 µM (≈ 0.00331 µg/mL).

And the MIC ([2]; read-out: MIC MRSA)?
The MIC was 37 µM.

And the MIC (Mycobacterium aurum)?
Its MIC is 0.3 µM (≈ 0.0994 µg/mL).

And the MIC (Mycobacterium vaccae)?
Its MIC is 1.2 µM (≈ 0.398 µg/mL).

What about the MIC (Mycobacterium fortuitum) of the same compound?
Its MIC is 0.6 µM (≈ 0.199 µg/mL).

And the MIC (Mycobacterium smegmatis)?
Its MIC is 4.71 µM (≈ 1.56 µg/mL).

What about the MIC (Bs) of the same compound?
Its MIC is 0.08 µM (≈ 0.0265 µg/mL).
